Several values for one entry are separate records, joined by “and”; a condition that tells them apart may be missing. Identical values can stand only once.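 Compound exposure: 48 hours, 5 concentrations, 96-well plates. GI50 = concentration required for 50% inhibition of growth. TGI: total growth inhibition.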 Bounds are passed on as bounds.

Among the test systems are HCT-15 colon; MCF7 breast; PC-3 prostate; HT29 colon; NCI-H226 lung; A498 renal; DU-145 prostate; ACHN renal; HCT-116 colon; HL-60(TB) leukemia.
Holding throughout (test): inhibition of tumour cell growth, NCI panel, 48 h

As for `CC1OC(O[C@@H]2C=C3CC[C@@H]4[C@H](CC[C@]5(C)[C@@H](c6ccc(=O)oc6)CC[C@]45O)[C@@]3(C)CC2)C(O)C(OC2OC(CO)C(O)C(O)C2O)C1O` (some centres undefined), the GI50 in the assay with HCT-15 colon is 0.000532 µM; in the assay on MCF7 breast it was 0.000196 µM; with NCI-H226 lung it was 0.0101 µM. The TGI was 0.116 µM and 0.0443 µM in the assay on HCT-15 colon; 0.0804 µM and 0.0468 µM in the assay with MCF7 breast; 0.00942 µM in the assay with PC-3 prostate; 0.0878 µM and 0.349 µM in the assay on HT29 colon; 0.0549 µM and 0.0732 µM in the assay with NCI-H226 lung; 0.0825 µM with A498 renal. Further, the figures for the TGI with DU-145 prostate and in the assay with ACHN renal were 0.0111 µM and 0.00301 µM, respectively.
Turning to `Cc1cc(O)c2c(c1)C(C1c3cccc(O)c3C(=O)c3c(O)cc(C)cc31)c1cccc(O)c1C2=O` (centres undefined), the TGI amounted to 12.3 µM in the assay on HCT-15 colon; 1.18 µM with MCF7 breast; 2.81 µM with PC-3 prostate; 18.9 µM in the assay on HCT-116 colon; 7.62 µM in the assay on HT29 colon; 2.24 µM in the assay on NCI-H226 lung. Besides, the TGI in the assay on A498 renal worked out at 4.53 µM; with DU-145 prostate it was 18.6 µM; in the assay on ACHN renal, 3.56 µM; in the assay with HL-60(TB) leukemia, 6.72 µM.
In the case of `O=S(O)c1cc(Cl)c(O)c(Cl)c1`, the TGI in the assay on HCT-116 colon, in the assay with HT29 colon, in the assay on A498 renal, in the assay on ACHN renal and in the assay with HL-60(TB) leukemia was greater than 100 µM throughout.
`CC(=O)OCC1OC(N=[N+]=[N-])C(OC(C)=O)C(OC(C)=O)C1OC1OC(COC(C)=O)C(OC(C)=O)C(OC(C)=O)C1OC(C)=O` (centres undefined): the TGI in the assay with HCT-15 colon, with HT29 colon, in the assay with A498 renal, with ACHN renal and in the assay with HL-60(TB) leukemia was greater than 100 µM each time.
On to `O=C1C(=C([O-])c2ccccc2)C(=O)c2ccccc21.O=C1C(=C([O-])c2ccccc2)C(=O)c2ccccc21.[Ni+2]`, for which the figures for the GI50 in the assay with HCT-15 colon, with HT29 colon and in the assay with NCI-H226 lung were 47.2 µM, 77 µM and 4.68 µM, respectively. Further, the TGI is greater than 100 µM with HCT-15 colon, greater than 100 µM in the assay with HT29 colon and 63.5 µM in the assay with NCI-H226 lung.
As for `COc1ccc([I+]c2ccc(OC)cc2)cc1`, the GI50 is greater than 100 µM in the assay with HCT-15 colon; 7.26 µM in the assay on MCF7 breast; 15.7 µM in the assay on PC-3 prostate; 2.83 µM with HCT-116 colon; 5.54 µM in the assay on HT29 colon; 14.4 µM in the assay with NCI-H226 lung. Also, the GI50 with A498 renal is 5.52 µM; in the assay on DU-145 prostate, 60.4 µM; in the assay with HL-60(TB) leukemia it was 6.4 µM. For the same molecule, the TGI in the assay with HCT-15 colon, with MCF7 breast, with PC-3 prostate, with HCT-116 colon, with HT29 colon and in the assay with NCI-H226 lung was greater than 100 µM in each case. For the same molecule, the TGI in the assay with A498 renal, with DU-145 prostate, in the assay with ACHN renal and with HL-60(TB) leukemia was greater than 100 µM each time.
For `Cn1c(=O)c2[nH]c(SC/C(=N/O)c3ccc(Br)cc3)nc2n(C)c1=O`, the GI50 was greater than 100 µM in the assay with PC-3 prostate, 3.19 µM in the assay on HCT-116 colon and 68.6 µM in the assay on HL-60(TB) leukemia. Besides, the TGI in the assay on PC-3 prostate, in the assay on HCT-116 colon and in the assay on HL-60(TB) leukemia was greater than 100 µM each time.
With `COc1cc2c[n+](C)c3c4cc(OC)c(OCc5ccccc5)cc4c(OCc4ccccc4)cc3c2cc1OC`, the TGI in the assay with HCT-15 colon was greater than 100 µM; in the assay on MCF7 breast it was 21.9 µM; in the assay on PC-3 prostate, 11.1 µM; in the assay with HCT-116 colon, 22 µM; with HT29 colon, 15.5 µM; in the assay with NCI-H226 lung, 43.9 µM. For the same molecule, the TGI with A498 renal is greater than 100 µM; in the assay on DU-145 prostate, 45.7 µM; in the assay with ACHN renal, greater than 100 µM.
As to `O=c1[nH]c(=O)n(C2CC(O)C(CO)O2)cc1Br` (centres undefined), the TGI in the assay on HCT-15 colon, in the assay with MCF7 breast, with PC-3 prostate, in the assay with HCT-116 colon, in the assay with HT29 colon and in the assay on NCI-H226 lung was greater than 100 µM each time. Besides, the TGI in the assay with A498 renal, in the assay on DU-145 prostate, in the assay with ACHN renal and in the assay with HL-60(TB) leukemia was greater than 100 µM in each case.
`COc1cc(O)c(Cc2ccccc2O)c(O)c1C(=O)CCc1ccccc1`: the TGI with HCT-15 colon was 19.9 µM; with MCF7 breast it was 18 µM; in the assay on HCT-116 colon it was 13.7 µM; in the assay on HT29 colon, 33.4 µM; in the assay on NCI-H226 lung, 32 µM; with A498 renal, 14.4 µM. In the assay with HL-60(TB) leukemia, this molecule registered a TGI of 20 µM.
For the molecule `COc1ccc2c3/c(=C\c4ccc(N(C)C)cc4)c4ccccc4n3[n+](C)c2c1`, the GI50 is 0.475 µM in the assay on HCT-15 colon; 0.124 µM in the assay with PC-3 prostate; 0.0533 µM with HCT-116 colon; 0.123 µM with HT29 colon; 0.244 µM in the assay with NCI-H226 lung; 0.371 µM in the assay with A498 renal. Also, the values for the GI50 in the assay with DU-145 prostate, with ACHN renal and in the assay with HL-60(TB) leukemia were 0.236 µM, 0.404 µM and 0.051 µM, respectively. Moreover, the TGI is greater than 100 µM with HCT-15 colon; 1.5 µM in the assay with PC-3 prostate; greater than 100 µM in the assay on HCT-116 colon; 1.68 µM with NCI-H226 lung; 7.37 µM in the assay on A498 renal; 1.81 µM with DU-145 prostate.
On to `COc1ccccc1C(=O)OCC1CCCN2CCCCC12` (centres undefined), for which the TGI is greater than 100 µM in the assay with HCT-15 colon; greater than 100 µM with MCF7 breast; greater than 100 µM in the assay with PC-3 prostate; greater than 100 µM with HCT-116 colon; 32.2 µM in the assay with HT29 colon; greater than 100 µM in the assay with NCI-H226 lung. For the same molecule, the TGI in the assay on A498 renal is greater than 100 µM; in the assay with DU-145 prostate, greater than 100 µM; in the assay with ACHN renal, greater than 100 µM; in the assay with HL-60(TB) leukemia, 44.2 µM.
Consider `NC(=O)/N=C/c1c(O)c2ccccc2oc1=O`, for which the TGI in the assay with HCT-15 colon, in the assay with HCT-116 colon, in the assay with HT29 colon, in the assay with NCI-H226 lung, in the assay on ACHN renal and in the assay on HL-60(TB) leukemia was greater than 100 µM each time.
In the case of `COC(=O)c1c(O)ccc2c1c1c(n2Cc2cccc(C)c2)C(=O)c2ccccc2C1`, the TGI in the assay with HCT-15 colon was greater than 75 µM; in the assay on MCF7 breast, greater than 75 µM; in the assay with PC-3 prostate, 27.6 µM; in the assay on HCT-116 colon, 16.7 µM; in the assay with HT29 colon, 19.9 µM; in the assay on NCI-H226 lung, greater than 75 µM. Moreover, the TGI in the assay on A498 renal, with DU-145 prostate, in the assay on ACHN renal and in the assay with HL-60(TB) leukemia was greater than 75 µM in each case.

(Values after PubChem BioAssay (NCI).)
